The target in this test is T1, recombinant human 11 β-HSD1 (Homo sapiens, UniProt P28845).
T1 construct: made in house; host or cells: E. coli
T1 sequence (P28845 whole entry): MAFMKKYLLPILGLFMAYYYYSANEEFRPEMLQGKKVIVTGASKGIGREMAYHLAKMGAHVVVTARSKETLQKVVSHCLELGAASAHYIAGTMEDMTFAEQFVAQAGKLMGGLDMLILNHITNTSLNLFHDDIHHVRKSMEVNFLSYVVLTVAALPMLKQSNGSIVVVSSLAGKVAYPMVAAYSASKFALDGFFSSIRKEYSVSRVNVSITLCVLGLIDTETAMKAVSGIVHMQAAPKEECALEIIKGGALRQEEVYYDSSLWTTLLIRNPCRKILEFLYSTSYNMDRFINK
As to the kind of experiment: 11 β-HSD1 SPA Assay (Scintillation Proximity Assay). It is filed as biochemical. The essentials: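 Scintillation proximity read-out of cortisol formed from 40 nM [3H]cortisone by purified recombinant human enzyme (30-100 nM, E. coli) with 1 mM NADPH, pH7.4, 2 hours at room temperature; beads with cortisol antibody and glycyrrhetinic acid stop the reaction, read next day. IC50 derived from inhibition normalised to background and maximal wells.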
(In general: Scintillation proximity formats need no separation of bound from free tracer.)
With `CC(C)NC(=O)c1ccc(N2[C@@H]3CC[C@H]2C[C@@H](NC(=O)C(C)(C)Oc2ccc(Cl)cc2C(F)(F)F)C3)nc1` [Example 370, 6-[3-endo-({2-[4-chloro-2-(trifluoromethyl)phenoxy]-2-methylpropanoyl}amino)-8-azabicyclo[3.2.1]oct-8-yl]-N-(propan-2-yl)pyridine-3-carboxamide], the IC50 (in general, the concentration that inhibits the measured activity by half) was under 200 nM. The same measure for `CC(C)(Oc1ccc(Cl)cc1)C(=O)N[C@H]1C[C@H]2CC[C@@H](C1)N2c1ccc(C(=O)NC2CC2)cn1` [Example 13, 6-[3-endo-({2-[(4-chlorophenyl)oxy]-2-methylpropanoyl}amino)-8-azabicyclo[3.2.1]oct-8-yl]-N-cyclopropylpyridine-3-carboxamide]: under 200 nM; for `CC(C)(Oc1c(Cl)cc(F)cc1Cl)C(=O)N[C@H]1C[C@H]2CC[C@@H](C1)N2c1ccc(S(C)(=O)=O)cc1` [Example 239, 2-[(2,6-dichloro-4-fluorophenyl)oxy]-2-methyl-N-{8-[4-(methylsulfonyl)phenyl]-8-azabicyclo[3.2.1]oct-3-endo-yl}propanamide]: under 200 nM; for `CC(=O)c1ccc(N2[C@@H]3CC[C@H]2C[C@@H](NC(=O)C2(c4ccc(Cl)cc4)CC2)C3)nc1` [Example 57, N-[8-(5-acetylpyridin-2-yl)-8-azabicyclo[3.2.1]oct-3-endo-yl]-1-(4-chlorophenyl)cyclopropanecarboxamide]: under 200 nM. Take `CC(C)(Oc1ccccc1Cl)C(=O)N[C@H]1C[C@H]2CC[C@@H](C1)N2c1ccc(C(=O)NCC(F)(F)F)cn1` [Example 29, 6-[3-endo-({2-[(2-chlorophenyl)oxy]-2-methylpropanoyl}amino)-8-azabicyclo[3.2.1]oct-8-yl]-N-(2,2,2-trifluoroethyl)pyridine-3-carboxamide]: the IC50 was under 200 nM.

For `CC(C)(Oc1ccc(Cl)cc1-c1ccc(F)cc1)C(=O)N[C@H]1C[C@H]2CC[C@@H](C1)N2c1ccc(C(N)=O)cn1` [Example 277, 6-[3-endo-({2-[(5-chloro-4′-fluorobiphenyl-2-yl)oxy]-2-methylpropanoyl}amino)-8-azabicyclo[3.2.1]oct-8-yl]pyridine-3-carboxamide], the 50% inhibitory concentration (IC50) is under 200 nM. Turning to `C[C@H](NC(=O)c1ccc(N2C3CCC2CC(NC(=O)C(C)(C)Oc2ccc(F)cc2C(F)(F)F)C3)nc1)C(F)(F)F` (stereo partly drawn) [Example 423, 6-[3-endo-({2-[4-fluoro-2-(trifluoromethyl)phenoxy]-2-methylpropanoyl}amino)-8-azabicyclo[3.2.1]oct-8-yl]-N-[(2S)-1,1,1-trifluoropropan-2-yl]pyridine-3-carboxamide], the IC50 is under 200 nM. `CC(C)(Oc1ncc(Cl)cc1F)C(=O)N[C@H]1C[C@H]2CC[C@@H](C1)N2c1ccc(C(=O)NCC(F)(F)F)cn1` [Example 127, 6-[3-endo-({2-[(5-chloro-3-fluoropyridin-2-yl)oxy]-2-methylpropanoyl}amino)-8-azabicyclo[3.2.1]oct-8-yl]-N-(2,2,2-trifluoroethyl)pyridine-3-carboxamide]: the IC50 was under 200 nM.

Regarding `CC(C)(Oc1cc(Cl)c(F)cc1Cl)C(=O)N[C@H]1C[C@H]2CC[C@@H](C1)N2c1ccc(S(N)(=O)=O)cn1` [Example 157, N-{8-[5-(aminosulfonyl)pyridin-2-yl]-8-azabicyclo[3.2.1]oct-3-endo-yl}-2-[(2,5-dichloro-4-fluorophenyl)oxy]-2-methylpropanamide], the IC50 was under 200 nM. As to `CC(C)(Oc1cc(OCCO)c(Cl)cc1Cl)C(=O)N[C@H]1C[C@H]2CC[C@@H](C1)N2c1ccc(C(=O)NCC(F)(F)F)cn1` [Example 361, 6-[3-endo-({2-[2,4-dichloro-5-(2-hydroxyethoxy)phenoxy]-2-methylpropanoyl}amino)-8-azabicyclo[3.2.1]oct-8-yl]-N-(2,2,2-trifluoroethyl)pyridine-3-carboxamide], the IC50 was under 200 nM.

Regarding “2-[(2,4-dichlorophenyl)oxy]-N-{8-[5-(1-hydroxy-1-methylethyl)pyridin-2-yl]-8-azabicyclo[3.2.1]oct-3-endo-yl}-2-methylpropanamide [Example 53]”, the IC50 was under 2000 nM. For the compound `CC(C)(Oc1cc(C(F)(F)F)ccc1F)C(=O)N[C@H]1C[C@H]2CC[C@@H](C1)N2c1ccc(C(=O)NCC(F)(F)F)cn1` [Example 190, 6-{3-endo-[(2-{[2-fluoro-5-(trifluoromethyl)phenyl]oxy}-2-methylpropanoyl)amino]-8-azabicyclo[3.2.1]oct-8-yl}-N-(2,2,2-trifiuoroethyl)pyridine-3-carboxamide], the IC50 was under 200 nM. To `Cc1ccc(OC(C)(C)C(=O)N[C@H]2C[C@H]3CC[C@@H](C2)N3c2ccc(S(C)(=O)=O)cn2)c(Cl)c1` [Example 212, 2-[(2-chloro-4-methylphenyl)oxy]-2-methyl-N-{8-[5-(methylsulfonyl)pyridin-2-yl]-8-azabicyclo[3.2.1]oct-3-endo-yl}propanamide] belongs under 200 nM. As to `C[C@@H](NC(=O)c1ccc(N2C3CCC2CC(NC(=O)C(C)(C)Oc2ccc(Cl)cc2OC(F)(F)F)C3)nc1)C(F)(F)F` (stereo partly drawn) [Example 415, 6-[3-endo-({2-[4-chloro-2-(trifluoromethoxy)phenoxy]-2-methylpropanoyl}amino)-8-azabicyclo[3.2.1]oct-8-yl]-N-[(2R)-1,1,1-trifluoropropan-2-yl]pyridine-3-carboxamide], the half-inhibitory concentration (IC50) was under 200 nM. The same measure for `CC(C)(Oc1ccc(C(F)(F)F)cc1)C(=O)N[C@H]1C[C@H]2CC[C@@H](C1)N2c1ccc(S(C)(=O)=O)cc1` [Example 245, 2-methyl-N-{8-[4-(methylsulfonyl)phenyl]-8-azabicyclo[3.2.1]oct-3-endo-yl}-2-{[4-(trifluoromethyl)phenyl]oxy}propanamide]: under 2000 nM. `C[C@H](NC(=O)c1ccc(N2C3CCC2CC(NC(=O)C(C)(C)Oc2ccc(F)cc2Cl)C3)nc1)C(F)(F)F` (stereo partly drawn) [Example 434, 6-(3-endo-{[2-(2-chloro-4-fluorophenoxy)-2-methylpropanoyl]amino}-8-azabicyclo[3.2.1]oct-8-yl)-N-[(2S)-1,1,1-trifluoropropan-2-yl]pyridine-3-carboxamide]: the half-maximal inhibitory concentration (IC50) was under 200 nM. On to `CC(C)(Oc1cc(OC(C)(C)C(=O)N[C@H]2C[C@H]3CC[C@@H](C2)N3c2ccc(C(=O)NCC(F)(F)F)cn2)c(Cl)cc1Cl)C(N)=O` [Example 426, 6-{3-endo-[(2-{5-[(1-amino-2-methyl-1-oxopropan-2-yl)oxy]-2,4-dichlorophenoxy}-2-methylpropanoyl)amino]-8-azabicyclo[3.2.1]oct-8-yl}-N-(2,2,2-trifluoroethyl)pyridine-3-carboxamide], for which the IC50 was under 200 nM. For the compound `CC(C)(Oc1ccc(Cl)c(F)c1)C(=O)N[C@H]1C[C@H]2CC[C@@H](C1)N2c1ccc(C(=O)NCC(F)(F)F)cc1` [Example 167, 4-[3-endo-({2-[(4-chloro-3-fluorophenyl)oxy]-2-methylpropanoyl}amino)-8-azabicyclo[3.2.1]oct-8-yl]-N-(2,2,2-trifluoroethyl)benzamide], the IC50 is under 200 nM. As to `CC(C)(Oc1ccc(F)cc1S(C)(=O)=O)C(=O)N[C@H]1C[C@H]2CC[C@@H](C1)N2c1ccc(S(N)(=O)=O)cn1` [Example 298, N-{8-[5-(aminosulfonyl)pyridin-2-yl]-8-azabicyclo[3.2.1]oct-3-endo-yl}-2-{[4-fluoro-2-(methylsulfonyl)phenyl]oxy}-2-methylpropanamide], the IC50 was under 2000 nM.
